Reference: patent publication US10844013B2, “Phenyl amino piperidine mTORC inhibitors and uses thereof” (Navitor Pharmaceuticals, Inc., priority 2016, dated 2020)

What was measured:
[1] = system: pAKT (p-Akt 1/2/3 (Ser473)) in MCF-7 cells; test: AlphaLISA Ultra pAKT assay; type: cell-based; conditions: Homo sapiens, MCF7, 2 hours compound incubation
In short: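 MCF-7 cells seeded 20-24 h, medium refreshed for 2 h, then treated with compounds for 2 h at 0.5% final DMSO. Lysates frozen at −80 °C, then pAKT detected by AlphaLISA with acceptor and donor beads, 2 h each.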

[2] = system: pS6K1 (p-p70 S6 Kinase (Thr389)) in MCF-7 cells; test: AlphaLISA Ultra pS6K1 assay; type: cell-based; conditions: Homo sapiens, MCF7, 2 h, 2 hours compound incubation
In short: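 MCF-7 cells seeded 20–24 h, medium refreshed 2 h, then treated 2 h with compound (0.5% DMSO final). Lysates probed for Thr389-phosphorylated p70 S6K by AlphaLISA Ultra, 2 h acceptor then 2 h donor bead incubation, read on a multimode reader.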

Compound	IC50 [1] [nM]	IC50 [2] [nM]
Cc1cc(C)c(C(=O)N2CCN(c3ccc(F)cn3)[C@@H](CO)C2)cc1NC1CCN(c2ccccc2C#N)CC1 [I-116, (R)-2-(4-(5-(4-(5-Fluoropyridin-2-yl)-3-(hydroxymethyl)piperazine-1-carbonyl)-2,4-dimethylphenylamino)piperidin-1-yl)benzonitrile]	> 10000	1000 to 3000
CNC(=O)C1CN(C(=O)c2cc(N(C)C3CCN(c4ccccc4C#N)CC3)c(C)cc2C)CCN1c1ccccc1 (stereo not drawn) [I-58]	> 10000	10 to 1000
Cc1cc(C)c(C(=O)N2CCN(c3ccccc3C#N)CC2)cc1NC1CCCN(c2cccc(C#N)c2)CC1 (stereo not drawn) [I-81, 2-[4-(5-{[1-(3-cyanophenyl)azepan-4-yl]amino}-2,4-dimethylbenzoyl)piperazin-1-yl]benzonitrile]	> 10000	> 10000
Cc1cc(C)c(C(=O)N2CCN(c3cc(F)c(F)cc3C#N)C[C@@H]2C)cc1NC1CCN(c2ccccc2C#N)CC1 [I-69, 2-[(3S)-4-(5-{[1-(2-Cyanophenyl)piperidin-4-yl]amino}-2,4-dimethylbenzoyl)-3-methylpiperazin-1-yl]-4,5-difluorobenzonitrile]	> 10000	10 to 1000
Cc1cc(C)c(C(=O)N2CCN(c3ccc(F)cn3)[C@H](CO)C2)c(C)c1NC1CCN(c2ncccn2)CC1 [I-151, [(2S)-1-(5-Fluoropyridin-2-yl)-4-(2,4,6-trimethyl-3-{[1-(pyrimidin-2-yl)piperidin-4-yl]amino}benzoyl)piperazin-2-yl]methanol]	> 10000	10 to 1000
Cc1cc(C)c(N(CC(N)=O)C2CCN(c3ccccc3C#N)CC2)cc1C(=O)N1CCN(c2ccccc2S(N)(=O)=O)CC1 [I-27, 2-((1-(2-Cyanophenyl)piperidin-4-yl)(2,4-dimethyl-5-(4-(2-sulfamoylphenyl)piperazine-1-carbonyl)phenyl)amino)acetamide]	> 10000	1000 to 3000
Cc1cc(C)c(C(=O)N2CCN(c3nnco3)[C@H](CO)C2)cc1NC1CCN(c2ccccc2C#N)CC1 [I-177, (S)-2-(4-((5-(3-(hydroxymethyl)-4-(1,3,4-oxadiazol-2-yl)piperazine-1-carbonyl)-2,4-dimethylphenyl)amino)piperidin-1-yl)benzonitrile]	> 10000	1000 to 3000
Cc1cccc(N2CCN(C(=O)c3cc(NC4CCN(c5ccccc5C#N)CC4)c(C)cc3C)C[C@@H]2CO)n1 [I-101, (R)-2-(4-(5-(3-(Hydroxymethyl)-4-(6-methylpyridin-2-yl)piperazine-1-carbonyl)-2,4-dimethylphenylamino)piperidin-1-yl)benzonitrile]	> 10000	1000 to 3000
Cc1cc(C)c(C(=O)N2CCN(c3ncccc3[S@](C)(=N)=O)CC2)cc1NC1CCN(c2ccccc2C#N)CC1 [I-94, (R)-2-(4-(2,4-Dimethyl-5-(4-(3-(S-methylsulfonimidoyl)pyridin-2-yl)piperazine-1-carbonyl)phenylamino)piperidin-1-yl)benzonitrile]	> 10000	1000 to 3000
Cc1cc(C)c(C(=O)N2CCN(c3ncccc3S(N)(=O)=O)CC2)c(C)c1N[C@@H]1CCN(c2ccccc2C#N)C[C@H]1C [I-180, 2-(4-(3-(((3R,4R)-1-(2-cyanophenyl)-3-methylpiperidin-4-yl)amino)-2,4,6-trimethylbenzoyl)piperazin-1-yl)pyridine-3-sulfonamide]	> 10000	10 to 1000
Cc1cc(C)c(C(=O)N2CCN(c3ccccc3F)C(CO)C2)cc1NC1CCN(c2ccccc2C#N)CC1 (stereo not drawn) [I-74, 2-[4-({5-[4-(2-Fluorophenyl)-3-(hydroxymethyl)piperazine-1-carbonyl]-2,4-dimethylphenyl}amino)piperidin-1-yl]benzonitrile]	> 10000	10 to 1000
N#Cc1ccccc1N1CCC(Nc2c(F)ccc(C(=O)N3CCN(c4ccccc4S(N)(=O)=O)CC3)c2F)CC1 [I-109, 2-(4-(3-(1-(2-cyanophenyl)piperidin-4-ylamino)-2,4-difluorobenzoyl)piperazin-1-yl)benzenesulfonamide]	> 10000	3000 to 5000
